In patent publication US20070117868A1, “Use of n-arylhydrazine derivatives for combating non-crop pests” (priority 2004, published 2007):

Columns and labels:
Type in all cases: in vivo
[1] = tested on: Anopheles albimanus; assay: Activity via glass contact, malaria mosquito; conditions: rate 1 ppm
Description: (§1) 1. Activity Against Argentine Ant, Harvester Ant, Acrobat Ant, Carpenter Ant, Fire Ant, House Fly, Stable Fly, Flesh Fly, Yellowfever Mosquito, House Mosquito, Malaria Mosquito, German Cockroach, Cat Flea, and Brown Dog Tick Via Glass Contact
(§2) Glass vials (20 ml scintillation vials) were treated with 0.5 ml of a solution of active ingredient in acetone. Each vial was rolled uncapped for ca. 10 minutes to allow the a.i. to completely coat the vial and to allow for full drying of the acetone. Insects or ticks were placed into each vial.

[2] = tested on: Culex quinquefasciatus; assay: Activity via glass contact, house mosquito; conditions: rate 0.5 ppm
Description: as §1, §2

[3] = tested on: Musca domestica; assay: Activity via glass contact, house fly; conditions: rate 10 ppm
Description: as §1, §2

[4] = tested on: Aedes aegypti; assay: Activity via glass contact, yellowfever mosquito; conditions: rate 10 ppm
Description: as §1, §2

[5] = tested on: Anopheles albimanus; assay: Activity via water treatment, malaria mosquito larvae; conditions: rate 1.0 ppm
Description: (§3) 4. Activity Against Yellowfever Mosquito, Southern House Mosquito, and Malaria Mosquito Larvae Via Water Treatment
(§4) Well plates were used as test arenas. The active ingredient was dissolved in acetone and diluted with water to obtain the concentrations needed. The final solutions containing appr. 1% acetone were placed into each well. Approximately 10 mosquito larvae (4th-instars) in 1 ml water were added to each well. Larvae were fed one drop of liver powder each day. The dishes were covered and maintained at 22° C. Mortality was recorded daily and dead larvae and live or dead pupae were removed daily. At the end of the test remaining live larvae were recorded and percent mortality was calculated.

[6] = tested on: Stomoxys calcitrans; assay: Activity via glass contact, stable fly; conditions: rate 10 ppm
Description: as §1, §2

[7] = tested on: Musca domestica; assay: Activity via bait, house fly; conditions: rate 0.1 w %
Description: (§5) 3. Activity Against Argentine Ant, Acrobat Ant, Carpenter Ant, Fire Ant, House Fly, Eastern Subterranean Termite, Formosan Subterranean Termite, and German Cockroach Via Bait
For house flies. Bait tests were conducted with adults aged 2-5 days post-emergence. Active ingredient in acetone was applied to a bait matrix consisting of a 1:1 mixture of powdered milk and sugar which was then allowed to dry. Assays were conducted in jars with 250 mg of bait in a pan placed in the bottom of each jar. House flies were placed into the bait jars which were covered. The test jars were held at 22° C.

[8] = tested on: Sarcophaga sp.; assay: Activity via glass contact, flesh fly; conditions: rate 10 ppm
Description: as §1, §2

[9] = tested on: Solenopsis invicta; assay: Activity via glass contact, fire ant; conditions: rate 10 ppm
Description: as §1, §2

[10] = tested on: Ctenocephalides felis; assay: Activity via glass contact, cat flea; conditions: rate 100 ppm
Description: as §1, §2

[11] = tested on: Camponotus floridanus; assay: Activity via soil contact, carpenter ant; conditions: rate 0.01 w %
Description: (§6) 2. Activity Against Argentine Ant, Acrobat Ant, Carpenter Ant, Fire Ant, and Eastern Subterranean Termite Via Soil Contact
(§7) For ants, tests were conducted in Petri dishes. A thin layer of 1% agar in water was dispensed into the dishes and Florida sandy soil was spread over the agar (5 g for the small dishes and 11 g for the larger dishes). The active ingredient was dissolved in acetone and dispensed over the sand. Dishes were vented to evaporate the acetone, infested with ants, and covered. A 20% honey water solution was placed in each dish. The dishes were maintained at 22° C. and observed for mortality at various time intervals.

[12] = tested on: Solenopsis invicta; assay: Activity via bait (corn grit), fire ant; conditions: rate 0.7 w %
Description: as §5
For the fire ants, corn grit was used as a bait matrix. […] Petri dishes were supplied with a water source. Fire ant adults were placed into each dish. The next day, 250 mg of bait in bait containers was placed into the dishes.

[13] = tested on: Solenopsis invicta; assay: Activity via soil contact, fire ant; conditions: rate 0.01 w %
Description: as §6, §7

[14] = tested on: Coptotermes formosanus; assay: Activity via bait (treated filter paper), Formosan termite; conditions: rate 0.1 w %
Description: as §5
For termites, active ingredient in acetone was applied to filter papers. % a.i. were calculated on basis of the weight of the filter paper. Acetone only was applied for untreated controls. Treated papers were vented to evaporate the acetone, moistened with […], and placed Petri dishes with sand. Water was added during the test as needed. Bioassays were conducted with one treated filter and ca. 30 termite workers per test dish. Test dishes were maintained at 25° C. and appr. 85% relative humidity and observed daily for mortality (dead or moribund insects) or intoxication. Dead or moribund insects were removed daily.

[15] = tested on: Culex quinquefasciatus; assay: Activity via water treatment, house mosquito larvae; conditions: rate 10 ppm
Description: as §3, §4

[16] = tested on: Crematogaster spp.; assay: Activity via soil contact, acrobat ant; conditions: rate 0.01 w %
Description: as §6, §7

[17] = tested on: Aedes aegypti; assay: Activity via water treatment, yellowfever mosquito larvae; conditions: rate 10 ppm
Description: as §3, §4

[18] = tested on: Camponotus floridanus; assay: Activity via glass contact, carpenter ant; conditions: rate 10 ppm
Description: as §1, §2

Measured: Days or Hours to achieve 100% mortality

CCN/C(=N\Nc1c(Cl)cc(C(F)(F)F)cc1Cl)C1(C)CC1(Cl)Cl (stereo not drawn) [Compound I-2, N-Ethyl-2,2-dichloro-1-methylcyclopropanecarboxamide-2-(2,6-dichloro-α,α,α-tri-fluoro-p-tolyl)hydrazone]
1 days: [1] | [5] | [11] | [13] | [15] | [18]
2 days: [10] | [16] | [17]
5 days: [14]
3 h: [7]
3 days: [12]
4 h: all other assays above

CCN/C(=N\Nc1c(Cl)cc(C(F)(F)F)cc1Cl)C(C)(C)C [Compound I-1, N-ethyl-2,2-dimethylpropionamide-2-(2,6-dichloro-α,α,α-trifluoro-p-tolyl)-hydrazone]
5 days: [14]
2 days: [10] | [16] | [17]
3 days: [12]
3 h: [7]
1 days: [1] | [5] | [11] | [13] | [15] | [18]
4 h: all other assays above
